From patent US10301295B2, “Herbicidal compounds” (Syngenta Participations AG, priority 2014, dated 2019) come the findings set out here.

Holding throughout (format): in vivo
The subject of experiment [1] is wheat. Description: Post-emergence herbicidal activity against cereal crops (wheat) +/- safener, crop selectivity. The note with it: 100%=total damage to plant, 0%=no damage; for Post-emergence herbicidal activity against wheat (percentage phytotoxicity), +CQC: 250 g/ha, plus safener cloquintocet-mexyl (CQC) applied at 50 g/ha; for percent phytotoxicity (crop damage) to wheat at 250 g/ha: Triticum aestivum, 360 h, without safener, read-out: Post-emergence herbicidal activity against wheat (percentage phytotoxicity), Wheat - CQC. Summed up:
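Test plants raised in pots in a glasshouse (24/18 °C warm or 20/16 °C cool species day/night, 16 h light, 65% humidity) and treated post-emergence about 12 days after sowing. Visual percentage phytotoxicity scored 15 days after application (0% = no damage, 100% = total damage).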

For experiment [2], the system named is Lolium perenne (LOLPE). As to the kind of experiment: Glasshouse assay for herbicidal activity, pre-/post-emergence (percentage phytotoxicity). The note with it: Lolium perenne, Rate 250 g/ha, 100%=total damage, 0%=no damage. The gist of the method: (§1)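 Percentage phytotoxicity was assessed visually, 100% meaning total plant damage and 0% none, at 20 days after application for pre-emergence and 15 days for post-emergence. Plants were potted in standard soil and treated after 1 day or about 12 days of growth.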

For experiment [3], the system named is Alopecurus myosuroides (ALOMY). The description is as above. The note with it: Alopecurus myosuroides, Rate 250 g/ha, 100%=total damage, 0%=no damage. The gist of the method:
as §1

Experiment [4] relates to Echinochloa crus-galli (ECHCG). The experiment is described as above. The note with it: Echinochloa crus-galli, Rate 250 g/ha, 100%=total damage, 0%=no damage. Summed up: as §1
In experiment [5] the test system is Avena fatua (AVEFA). The description is as above. The note with it: Avena fatua, Rate 250 g/ha, 100%=total damage, 0%=no damage. The gist of the method:
as §1

The mark [6] stands for this setting: post-emergence, 360 h, post-emergence, visual assessment 15 DAA, read-out: Post-emergence herbicidal activity (percentage phytotoxicity), LOLPE POST.
Where [7] appears, read: pre-emergence, 480 h, pre-emergence, visual assessment 20 DAA, read-out: Pre-emergence herbicidal activity (percentage phytotoxicity), LOLPE PRE.
Where [8] appears, read: 360 h, post-emergence, visual assessment 15 DAA, read-out: Post-emergence herbicidal activity (percentage phytotoxicity), ALOMY POST.
The mark [9] stands for this setting: 480 h, pre-emergence, visual assessment 20 DAA, read-out: Pre-emergence herbicidal activity (percentage phytotoxicity), ALOMY PRE.
[10] abbreviates: post-emergence, 360 h, post-emergence, visual assessment 15 DAA, read-out: Post-emergence herbicidal activity (percentage phytotoxicity), ECHCG POST.
[11] abbreviates: pre-emergence, 480 h, pre-emergence, visual assessment 20 DAA, read-out: Pre-emergence herbicidal activity (percentage phytotoxicity), ECHCG PRE.
Where [12] appears, read: post-emergence, 360 h, post-emergence, visual assessment 15 DAA, read-out: Post-emergence herbicidal activity (percentage phytotoxicity), AVEFA POST.
The mark [13] stands for this setting: pre-emergence, 480 h, pre-emergence, visual assessment 20 DAA, read-out: Pre-emergence herbicidal activity (percentage phytotoxicity), AVEFA PRE.

Each structure is given as a SMILES string. Where two headings read alike, the source gives them in different places.

On to `Cc1cc(C)c(C2C(=O)CC(CCNC(=O)NC(=O)c3ccccc3F)C2=O)c(C)c1` (centres unmarked) [Compound A54], for which the “Post-emergence herbicidal activity against wheat (percentage phytotoxicity), +CQC” value in experiment [1] amounted to 80%. Also, the percent phytotoxicity (crop damage) to wheat at 250 g/ha in experiment [1] turned out to be 90%. Further, the pest or weed control at 250 g/ha in experiment [2] (setting [6]) came out at 100%; in experiment [2] (setting [7]), 80%; in experiment [3] (setting [8]), 100%; in experiment [3] (setting [9]) it was 60%; in experiment [4] (setting [10]) it was 100%; in experiment [4] (setting [11]), 80%. For the same compound, the pest or weed control at 250 g/ha in experiment [5] (setting [12]) was found to be 100%; in experiment [5] (setting [13]) it was 60%.

As to `Cc1cc(C)c(C2C(=O)CC(CCNC(=O)NC(=O)c3c(F)cc(Cl)cc3F)C2=O)c(C)c1` (centres unmarked) [Compound A64], the “Post-emergence herbicidal activity against wheat (percentage phytotoxicity), +CQC” value in experiment [1] is 80%. The percent phytotoxicity (crop damage) to wheat at 250 g/ha in experiment [1] came out at 90%. The pest or weed control at 250 g/ha in experiment [2] (setting [6]) is 100%; in experiment [2] (setting [7]) it was 80%; in experiment [3] (setting [8]), 90%; in experiment [3] (setting [9]) it was 100%; in experiment [4] (setting [10]), 90%; in experiment [4] (setting [11]) it was 80%. In addition, the values for the pest or weed control at 250 g/ha in experiment [5] (setting [12]) and in experiment [5] (setting [13]) were 90% and 80%, respectively.

Turning to `Cc1cc(C)c(C2C(=O)CC(CCNC(=O)NC(=O)c3ccc(Cl)cc3F)C2=O)c(C)c1` (centres unmarked) [Compound A59], the “Post-emergence herbicidal activity against wheat (percentage phytotoxicity), +CQC” value in experiment [1] was determined as 80%. Besides, the percent phytotoxicity (crop damage) to wheat at 250 g/ha in experiment [1] was 90%. For the same compound, the pest or weed control at 250 g/ha in experiment [2] (setting [6]) was determined as 100%; in experiment [2] (setting [7]), 80%; in experiment [3] (setting [8]) it was 90%; in experiment [3] (setting [9]), 70%; in experiment [4] (setting [10]) it was 90%; in experiment [4] (setting [11]), 100%. The pest or weed control at 250 g/ha in experiment [5] (setting [12]) worked out at 90%; in experiment [5] (setting [13]) it was 30%.

As for `Cc1cc(C)c(C2C(=O)CC(CCNC(=O)NC(=O)c3ccc(Cl)c(F)c3)C2=O)c(C)c1` (centres unmarked) [Compound A58], in experiment [1], the “Post-emergence herbicidal activity against wheat (percentage phytotoxicity), +CQC” value was 20%. Also, in experiment [1], the percent phytotoxicity (crop damage) to wheat at 250 g/ha was 80%. Further, the pest or weed control at 250 g/ha is 90% in experiment [2] (setting [6]); 0% in experiment [2] (setting [7]); 40% in experiment [3] (setting [8]); 0% in experiment [3] (setting [9]); 80% in experiment [4] (setting [10]); 0% in experiment [4] (setting [11]). Also, the pest or weed control at 250 g/ha amounted to 10% in experiment [5] (setting [12]) and 0% in experiment [5] (setting [13]).

With `Cc1cc(C)c(C2C(=O)CC(CCNC(=O)NC(=O)c3ccc(F)cc3C(F)(F)F)C2=O)c(C)c1` (centres unmarked) [Compound A69], the “Post-emergence herbicidal activity against wheat (percentage phytotoxicity), +CQC” value in experiment [1] is reported as 80%. Moreover, the percent phytotoxicity (crop damage) to wheat at 250 g/ha in experiment [1] stood at 90%. Further, the pest or weed control at 250 g/ha was determined as 100% in experiment [2] (setting [6]); 80% in experiment [2] (setting [7]); 100% in experiment [3] (setting [8]); 80% in experiment [3] (setting [9]); 70% in experiment [4] (setting [10]); 70% in experiment [4] (setting [11]). Moreover, the pest or weed control at 250 g/ha in experiment [5] (setting [12]) came out at 90%; in experiment [5] (setting [13]), 80%.

Turning to `Cc1cc(-n2cc(Cl)cn2)cc(C)c1C1C(=O)CC(CCNC(=O)Nc2ccncn2)C1=O.Cl` (centres unmarked) [Compound A33], the “Post-emergence herbicidal activity against wheat (percentage phytotoxicity), +CQC” value in experiment [1] was 10%. In addition, the percent phytotoxicity (crop damage) to wheat at 250 g/ha in experiment [1] was 40%. Besides, the pest or weed control at 250 g/ha worked out at 30% in experiment [2] (setting [6]); 0% in experiment [2] (setting [7]); 40% in experiment [3] (setting [8]); 60% in experiment [3] (setting [9]); 80% in experiment [4] (setting [10]); 70% in experiment [4] (setting [11]). In addition, the pest or weed control at 250 g/ha in experiment [5] (setting [12]) and in experiment [5] (setting [13]) was 40% in each case.

As to `COc1ccc(C(=O)NC(=O)NCCC2CC(=O)C(c3c(C)cc(C)cc3C)C2=O)cc1` (centres unmarked) [Compound A57], the “Post-emergence herbicidal activity against wheat (percentage phytotoxicity), +CQC” value in experiment [1] stood at 20%. The percent phytotoxicity (crop damage) to wheat at 250 g/ha in experiment [1] stood at 80%. The pest or weed control at 250 g/ha in experiment [2] (setting [6]) is 100%; in experiment [2] (setting [7]), 70%; in experiment [3] (setting [8]), 90%; in experiment [3] (setting [9]), 80%; in experiment [4] (setting [10]), 80%; in experiment [4] (setting [11]), 100%. Further, the values for the pest or weed control at 250 g/ha in experiment [5] (setting [12]) and in experiment [5] (setting [13]) were 50% and 0%, respectively.

As for `Cc1cc(-n2cc(Cl)cn2)cc(C)c1C1C(=O)CC(CCNS(=O)(=O)c2ccc(Cl)cc2)C1=O` (centres unmarked) [Compound A37], in experiment [1], the “Post-emergence herbicidal activity against wheat (percentage phytotoxicity), +CQC” value was determined as 10%. The percent phytotoxicity (crop damage) to wheat at 250 g/ha in experiment [1] worked out at 20%. Moreover, the pest or weed control at 250 g/ha in experiment [2] (setting [6]) is 0%; in experiment [2] (setting [7]), 0%; in experiment [3] (setting [8]) it was 0%; in experiment [3] (setting [9]) it was 0%; in experiment [4] (setting [10]), 30%; in experiment [4] (setting [11]), 0%. For the same compound, the pest or weed control at 250 g/ha in experiment [5] (setting [12]) and in experiment [5] (setting [13]) was 0% throughout.

With `Cc1cc(C)c(C2C(=O)CC(CCNC(=O)N(C)c3ccccn3)C2=O)c(C)c1` (centres unmarked) [Compound A11], in experiment [1], the “Post-emergence herbicidal activity against wheat (percentage phytotoxicity), +CQC” value was determined as 70%. The percent phytotoxicity (crop damage) to wheat at 250 g/ha in experiment [1] was found to be 80%. For the same compound, the pest or weed control at 250 g/ha was found to be 100% in experiment [2] (setting [6]); 100% in experiment [2] (setting [7]); 90% in experiment [3] (setting [8]); 100% in experiment [3] (setting [9]); 90% in experiment [4] (setting [10]); 100% in experiment [4] (setting [11]). In addition, the pest or weed control at 250 g/ha in experiment [5] (setting [12]) and in experiment [5] (setting [13]) was 90% each time.

As for `Cc1cc(C)c(C2C(=O)CC(CCNC(=S)Nc3ccc(F)cc3)C2=O)c(C)c1` (centres unmarked) [Compound A89], in experiment [1], the “Post-emergence herbicidal activity against wheat (percentage phytotoxicity), +CQC” value amounted to 0%. In experiment [1], the percent phytotoxicity (crop damage) to wheat at 250 g/ha amounted to 10%. In addition, the pest or weed control at 250 g/ha in experiment [2] (setting [6]) is 0%; in experiment [2] (setting [7]), 40%; in experiment [3] (setting [8]), 0%; in experiment [3] (setting [9]), 0%; in experiment [4] (setting [10]), 0%; in experiment [4] (setting [11]) it was 30%. The pest or weed control at 250 g/ha in experiment [5] (setting [12]) is 40%; in experiment [5] (setting [13]) it was 0%.

Turning to `COc1ccc(S(=O)(=O)NCCC2CC(=O)C(c3c(C)cc(C)cc3C)C2=O)cc1` (centres unmarked) [Compound A79], in experiment [1], the “Post-emergence herbicidal activity against wheat (percentage phytotoxicity), +CQC” value came out at 0%. Moreover, the percent phytotoxicity (crop damage) to wheat at 250 g/ha in experiment [1] amounted to 30%. The pest or weed control at 250 g/ha in experiment [2] (setting [6]) turned out to be 60%; in experiment [2] (setting [7]), 70%; in experiment [3] (setting [8]), 30%; in experiment [3] (setting [9]), 30%; in experiment [4] (setting [10]), 40%; in experiment [4] (setting [11]), 50%. Further, the pest or weed control at 250 g/ha is 60% in experiment [5] (setting [12]) and 10% in experiment [5] (setting [13]).
